Results as given in article PMC11484808, “Streamlined analysis of drug targets by proteome integral solubility alteration indicates organ-specific engagement” (Nature Communications, 2024).
pKd: −log10 of the molar value.

Molecular target: T1, Pirin (Homo sapiens, UniProt O00625)
T1 construct: gene PIR; recombinant human pirin (Abcam, ab123170)
T1 sequence (O00625 1-290): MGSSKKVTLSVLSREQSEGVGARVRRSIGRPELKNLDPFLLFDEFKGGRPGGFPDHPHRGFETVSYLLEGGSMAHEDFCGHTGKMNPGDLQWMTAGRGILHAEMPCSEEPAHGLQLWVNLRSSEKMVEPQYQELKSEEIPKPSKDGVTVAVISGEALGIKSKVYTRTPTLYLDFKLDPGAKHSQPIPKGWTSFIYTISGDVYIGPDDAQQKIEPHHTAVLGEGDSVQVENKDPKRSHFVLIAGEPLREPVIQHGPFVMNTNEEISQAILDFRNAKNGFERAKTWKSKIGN
Experiment: SPR (Biacore T200), steady state; also TPP-PISA stabilization in extracts
Assay type: binding

CC(C)Cc1ccc(C(C)C(=O)O)cc1 (stereo not shown) [Ibuprofen]
pKd: ~3.26
